Experimental data from patent US7534782B2, “Crystal of 1-methylcarbapenem solvate” (Sankyo Company, Limited, priority 2003, dated 2009).
Read-outs that look alike come from different tables or passages of the source.

Key:
[1] = storage stability of the crystalline forms; type: physicochemical
[2] = system: Gram-negative bacterial strains and Gram-positive bacterial strains; conditions: cited from earlier work

## C[C@@H](O)[C@H]1C(=O)N2C(C(=O)O)=C(S[C@H]3C[C@@H](C(=O)N4CC[C@H](NC(=O)CNC(=N)N)C4)N(C)C3)[C@H](C)[C@H]12 [Crystalline form (I-1), (1R,5S,6S)-2-[(2S,4S)-2-[(3S)-3-(2-Guanidinoacetylamino)pyrrolidin-1-ylcarbonyl]-1-methylpyrrolidin-4-ylthio]-6-[(1R)-1-hydroxyethyl]-1-methyl-1-carbapen-2-em-3-carboxylic acid ethanolate]
[1]; dry conditions
  storage stability under dry conditions: improved storage stability

## C[C@@H](O)[C@H]1C(=O)N2C(C(=O)O)=C(S[C@H]3C[C@@H](C(=O)N4CC[C@H](NC(=O)CNC(=N)N)C4)N(C)C3)[C@H](C)[C@H]12 [Crystalline form (I-3), (1R,5S,6S)-2-[(2S,4S)-2-[(3S)-3-(2-Guanidinoacetylamino)pyrrolidin-1-ylcarbonyl]-1-methylpyrrolidin-4-ylthio]-6-[(1R)-1-hydroxyethyl]-1-methyl-1-carbapen-2-em-3-carboxylic acid ethanolate trihydrate]
[1]; trihydrate
  stability during storage under conditions of normal or high humidity: remains stable during storage

## C[C@@H](O)[C@H]1C(=O)N2C(C(=O)O)=C(S[C@H]3C[C@@H](C(=O)N4CC[C@H](NC(=O)CNC(=N)N)C4)N(C)C3)[C@H](C)[C@H]12 [Crystalline form (I-2), (1R,5S,6S)-2-[(2S,4S)-2-[(3S)-3-(2-Guanidinoacetylamino)pyrrolidin-1-ylcarbonyl]-1-methylpyrrolidin-4-ylthio]-6-[(1R)-1-hydroxyethyl]-1-methyl-1-carbapen-2-em-3-carboxylic acid tetrahydrate]
[1]
  stability during storage under conditions of normal or high humidity: stable during storage

## C[C@@H](O)[C@H]1C(=O)N2C(C(=O)O)=C(S[C@H]3C[C@@H](C(=O)N4CC[C@H](NC(=O)CNC(=N)N)C4)N(C)C3)[C@H](C)[C@H]12 [compound (I), (1R,5S,6S)-2-[(2S,4S)-2-[(3S)-3-(2-guanidinoacetylamino)pyrrolidin-1-ylcarbonyl]-1-methylpyrrolidin-4-ylthio]-6-[(1R)-1-hydroxyethyl]-1-methyl-1-carbapen-2-em-3-carboxylic acid]
[2]
  antibiotic activity: excellent antibiotic activity
[2]; listed as 1-methylcarbapenem compound of formula (I)
  antibiotic activity: potent antibiotic activity
